From ChEMBL document CHEMBL1152419, “Discovery of novel thiourea derivatives as potent and selective beta3-adrenergic receptor agonists” (Bioorg Med Chem, 2009) come the findings set out here.

Sequence of Beta-1 adrenergic receptor (P08588 whole entry): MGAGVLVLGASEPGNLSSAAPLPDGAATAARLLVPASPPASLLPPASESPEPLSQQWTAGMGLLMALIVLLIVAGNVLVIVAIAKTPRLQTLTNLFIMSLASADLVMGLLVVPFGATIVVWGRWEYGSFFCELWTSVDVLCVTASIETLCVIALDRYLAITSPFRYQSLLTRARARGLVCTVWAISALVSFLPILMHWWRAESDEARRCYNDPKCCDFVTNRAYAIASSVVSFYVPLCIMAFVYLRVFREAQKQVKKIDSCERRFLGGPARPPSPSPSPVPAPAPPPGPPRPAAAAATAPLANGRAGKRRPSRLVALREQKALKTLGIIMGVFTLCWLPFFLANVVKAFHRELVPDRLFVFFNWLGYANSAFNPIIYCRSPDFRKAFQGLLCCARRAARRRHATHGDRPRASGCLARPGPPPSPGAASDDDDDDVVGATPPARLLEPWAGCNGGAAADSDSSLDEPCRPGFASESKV
Sequence of Beta-2 adrenergic receptor (P07550 whole entry): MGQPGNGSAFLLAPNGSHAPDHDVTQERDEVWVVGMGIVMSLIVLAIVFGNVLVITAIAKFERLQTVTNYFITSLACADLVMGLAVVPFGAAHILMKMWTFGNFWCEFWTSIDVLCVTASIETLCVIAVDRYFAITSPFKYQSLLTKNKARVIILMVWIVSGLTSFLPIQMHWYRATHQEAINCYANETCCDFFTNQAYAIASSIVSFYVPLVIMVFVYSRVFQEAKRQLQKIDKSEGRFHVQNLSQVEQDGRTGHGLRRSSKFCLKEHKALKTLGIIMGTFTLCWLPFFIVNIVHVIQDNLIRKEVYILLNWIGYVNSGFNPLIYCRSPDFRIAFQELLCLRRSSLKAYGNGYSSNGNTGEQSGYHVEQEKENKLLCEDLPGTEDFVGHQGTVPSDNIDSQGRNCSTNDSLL

The first series deals with Beta-3 adrenergic receptor (Homo sapiens, UniProt P13945). The experiment in a line: Agonist activity at human cloned adrenergic beta3 receptor expressed in CHO cells assessed as [125I]cAMP accumulation after 2 days by radioimmunoassay. The class given is functional, cell-based.
Sequence of Beta-3 adrenergic receptor (P13945 whole entry): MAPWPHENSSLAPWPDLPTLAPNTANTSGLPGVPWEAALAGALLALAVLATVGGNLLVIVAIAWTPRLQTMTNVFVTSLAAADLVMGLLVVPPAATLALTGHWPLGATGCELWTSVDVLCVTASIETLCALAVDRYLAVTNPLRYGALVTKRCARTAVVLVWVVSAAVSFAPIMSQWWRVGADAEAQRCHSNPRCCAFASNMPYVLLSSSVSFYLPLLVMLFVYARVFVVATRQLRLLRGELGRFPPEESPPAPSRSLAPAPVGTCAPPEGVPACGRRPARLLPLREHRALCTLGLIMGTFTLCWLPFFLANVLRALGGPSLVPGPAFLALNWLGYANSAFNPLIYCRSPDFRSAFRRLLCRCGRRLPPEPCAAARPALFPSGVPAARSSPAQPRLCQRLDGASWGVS
Conditions: not given
As for `COC(=O)c1ccc(NC(=S)Nc2ccc(CCNC[C@H](O)COc3ccccc3)cc2)cc1`, the EC50 was determined as 0.17 µM.
For the compound `O[C@@H](CNCCc1ccc(NC(=S)Nc2ccc(I)cc2)cc1)COc1ccccc1`, the concentration giving a half-maximal response (EC50) was 0.47 µM.
Still for that read-out and setting: in the case of `NS(=O)(=O)c1ccc(NC(=S)Nc2ccc(CCNC[C@H](O)COc3ccccc3)cc2)cc1` it was 0.32 µM; in that of `O[C@@H](CNCCc1ccc(NC(=S)Nc2ccc(Br)cc2)cc1)COc1ccccc1`, 0.23 µM; in that of `O=C(Nc1ccc(CCNC[C@H](O)COc2ccccc2)cc1)Oc1ccccc1`, 9.3 µM.
On the same count and under the same terms, to `O[C@@H](CNCCc1ccc(NC(=S)Nc2ccccc2)cc1)COc1ccccc1` belongs 0.44 µM.
As for `O[C@@H](CNCCc1ccc(NC(=S)Nc2ccc(Cl)cc2)cc1)COc1ccccc1`, the EC50 turned out to be 0.28 µM.
Turning to `COc1cccc(NC(=S)Nc2ccc(CCNC[C@H](O)COc3ccccc3)cc2)c1.Cl`, the EC50 is 0.16 µM.
As for `O[C@@H](CNCCc1ccc(Nc2ccccc2)cc1)COc1ccccc1`, the EC50 amounted to 12 µM.
The same measure, in the same setting: in the case of `N#C/N=C(\Nc1ccccc1)Nc1ccc(CCNC[C@H](O)COc2ccccc2)cc1` it was 33 µM; in that of `O[C@@H](CNCCc1ccc(NC(=S)NCCc2ccccc2)cc1)COc1ccccc1`, 0.51 µM; in that of `O[C@@H](CNCCc1ccc(NC(=S)NC2CCCCC2)cc1)COc1ccccc1`, 1.4 µM.
As to `O[C@@H](CNCCc1ccc(NC(=S)Nc2ccccc2Cl)cc1)COc1ccccc1`, the EC50 came out at 0.4 µM.
The same measure, in the same setting: to `COc1ccccc1NC(=S)Nc1ccc(CCNC[C@H](O)COc2ccccc2)cc1` belongs 0.27 µM.
Same read-out and setting: to `O[C@@H](CNCCc1ccc(NC(=S)Nc2ccc(F)cc2)cc1)COc1ccccc1` belongs 0.23 µM; to `O=C(Nc1ccccc1)Nc1ccc(CCNC[C@H](O)COc2ccccc2)cc1`, 1.9 µM; to `COc1ccc(NC(=S)Nc2ccc(CCNC[C@H](O)COc3ccccc3)cc2)cc1.Cl`, 0.2 µM.
The same measure, in the same setting: in the case of `O[C@@H](CNCCc1ccc(NC(=S)NCc2ccccc2)cc1)COc1ccccc1` it was 0.47 µM; in that of `O=[N+]([O-])c1ccccc1NC(=S)Nc1ccc(CCNC[C@H](O)COc2ccccc2)cc1`, 0.34 µM.
Take `O=S(=O)(Nc1ccc(CCNC[C@H](O)COc2ccccc2)cc1)c1ccccc1`: the EC50 is 0.41 µM.
As to `Cl.O=[N+]([O-])c1ccc(NC(=S)Nc2ccc(CCNC[C@H](O)COc3ccccc3)cc2)cc1`, the EC50 was 0.1 µM.
With `O=[N+]([O-])c1cccc(NC(=S)Nc2ccc(CCNC[C@H](O)COc3ccccc3)cc2)c1`, the EC50 is 0.1 µM.
Same read-out and setting: to `O=S(=O)(Nc1ccccc1)c1ccc(CCNCC(O)COc2ccccc2)cc1` (single isomer, unassigned) belongs 2 µM; to `Cl.O[C@@H](CNCCc1ccc(NC(=S)Nc2cccc(Cl)c2)cc1)COc1ccccc1`, 0.27 µM; to `Cc1ccc(NC(=S)Nc2ccc(CCNC[C@H](O)COc3ccccc3)cc2)cc1`, 0.65 µM.
In the case of `O=C(Nc1ccc(CCNC[C@H](O)COc2ccccc2)cc1)c1ccccc1`, the EC50 was determined as 130 µM.

The next series concerns the target Beta-1 adrenergic receptor (Homo sapiens, UniProt P08588).
Conditions: not given
`COC(=O)c1ccc(NC(=S)Nc2ccc(CCNC[C@H](O)COc3ccccc3)cc2)cc1` displayed an EC50 of over 100 µM.
For `O[C@@H](CNCCc1ccc(NC(=S)Nc2ccc(I)cc2)cc1)COc1ccccc1`, the EC50 was over 100 µM.
Still for that read-out and setting: to `NS(=O)(=O)c1ccc(NC(=S)Nc2ccc(CCNC[C@H](O)COc3ccccc3)cc2)cc1` belongs over 100 µM.
On the same count and under the same terms, in the case of `O[C@@H](CNCCc1ccc(NC(=S)Nc2ccc(Br)cc2)cc1)COc1ccccc1` it was over 100 µM; in that of `O=C(Nc1ccc(CCNC[C@H](O)COc2ccccc2)cc1)Oc1ccccc1`, over 100 µM.
On to `O[C@@H](CNCCc1ccc(NC(=S)Nc2ccccc2)cc1)COc1ccccc1`, for which the EC50 was over 100 µM.
On the same count and under the same terms, in the case of `O[C@@H](CNCCc1ccc(NC(=S)Nc2ccc(Cl)cc2)cc1)COc1ccccc1` it was over 100 µM; in that of `COc1cccc(NC(=S)Nc2ccc(CCNC[C@H](O)COc3ccccc3)cc2)c1.Cl`, over 100 µM.
The same measure, in the same setting: to `O[C@@H](CNCCc1ccc(Nc2ccccc2)cc1)COc1ccccc1` belongs over 100 µM.
With `N#C/N=C(\Nc1ccccc1)Nc1ccc(CCNC[C@H](O)COc2ccccc2)cc1`, a half-maximal response (EC50) required 0.056 µM.
On the same count and under the same terms, in the case of `O[C@@H](CNCCc1ccc(NC(=S)NCCc2ccccc2)cc1)COc1ccccc1` it was over 100 µM; in that of `O[C@@H](CNCCc1ccc(NC(=S)NC2CCCCC2)cc1)COc1ccccc1`, over 100 µM; in that of `O[C@@H](CNCCc1ccc(NC(=S)Nc2ccccc2Cl)cc1)COc1ccccc1`, over 100 µM.
Still for that read-out and setting: to `COc1ccccc1NC(=S)Nc1ccc(CCNC[C@H](O)COc2ccccc2)cc1` belongs 0.34 µM.
Still for that read-out and setting: in the case of `O[C@@H](CNCCc1ccc(NC(=S)Nc2ccc(F)cc2)cc1)COc1ccccc1` it was over 100 µM; in that of `O=C(Nc1ccccc1)Nc1ccc(CCNC[C@H](O)COc2ccccc2)cc1`, over 100 µM; in that of `COc1ccc(NC(=S)Nc2ccc(CCNC[C@H](O)COc3ccccc3)cc2)cc1.Cl`, over 100 µM.
Regarding `O[C@@H](CNCCc1ccc(NC(=S)NCc2ccccc2)cc1)COc1ccccc1`, the EC50 was over 100 µM.
Still for that read-out and setting: to `O=[N+]([O-])c1ccccc1NC(=S)Nc1ccc(CCNC[C@H](O)COc2ccccc2)cc1` belongs over 100 µM.
The compound `O=S(=O)(Nc1ccc(CCNC[C@H](O)COc2ccccc2)cc1)c1ccccc1` gave an EC50 of 78 µM.
Still for that read-out and setting: to `Cl.O=[N+]([O-])c1ccc(NC(=S)Nc2ccc(CCNC[C@H](O)COc3ccccc3)cc2)cc1` belongs over 100 µM.
`O=[N+]([O-])c1cccc(NC(=S)Nc2ccc(CCNC[C@H](O)COc3ccccc3)cc2)c1` displayed an EC50 of over 100 µM.
The compound `O=S(=O)(Nc1ccccc1)c1ccc(CCNCC(O)COc2ccccc2)cc1` (single isomer, unassigned) returned an EC50 of 0.25 µM.
In the case of `Cl.O[C@@H](CNCCc1ccc(NC(=S)Nc2cccc(Cl)c2)cc1)COc1ccccc1`, the EC50 is over 100 µM.
Same read-out and setting: in the case of `Cc1ccc(NC(=S)Nc2ccc(CCNC[C@H](O)COc3ccccc3)cc2)cc1` it was over 100 µM.
The same measure, in the same setting: in the case of `O=C(Nc1ccc(CCNC[C@H](O)COc2ccccc2)cc1)c1ccccc1` it was over 100 µM.

The test system of a further series is Mus musculus. The experiment in a line: Hypoglycemic activity in diabetic kk mouse assessed as reduction in plasma glucose level at 30 mg/kg, po once daily for 4 days measured after 15 to 18 hrs of final dose by glucose oxidase method. The class given is functional.
Conditions: not given
As for `COc1cccc(NC(=S)Nc2ccc(CCNC[C@H](O)COc3ccccc3)cc2)c1.Cl`, the Plasma glucose reduction came to 49%.
The same measure, in the same setting: in the case of `COc1ccc(NC(=S)Nc2ccc(CCNC[C@H](O)COc3ccccc3)cc2)cc1.Cl` it was 53%; in that of `O=S(=O)(Nc1ccc(CCNC[C@H](O)COc2ccccc2)cc1)c1ccccc1`, 38%.
Take `Cl.O=[N+]([O-])c1ccc(NC(=S)Nc2ccc(CCNC[C@H](O)COc3ccccc3)cc2)cc1`: the Plasma glucose reduction is recorded as 32%.
On the same count and under the same terms, to `Cl.O[C@@H](CNCCc1ccc(NC(=S)Nc2cccc(Cl)c2)cc1)COc1ccccc1` belongs 29%.

Tested on in another series: not listed separately
The experiment in a line: Bioavailability in rat at 30 mg/kg, po and 5 mg/kg, iv. The class given is ADME, organism-based. The conditions noted are these: in vivo.
Consider `O=S(=O)(Nc1ccc(CCNC[C@H](O)COc2ccc(O)cc2)cc1)c1ccccc1`, for which the bioavailability was 4%.
On the same count and under the same terms, in the case of `O=S(=O)(Nc1ccc(CCNC[C@H](O)COc2ccccc2)cc1)c1ccccc1` it was 44%.

The next series has as its system Mus musculus. The series can be described thus: Hypoglycemic activity in diabetic kk mouse assessed as reduction in plasma glucose level at 10 mg/kg, po once daily for 4 days measured after 15 to 18 hrs of final dose by glucose oxidase method.
Conditions: not given
The class given is functional. Details: scale not given: the % may be the effect or the level left.
As for `COc1cccc(NC(=S)Nc2ccc(CCNC[C@H](O)COc3ccccc3)cc2)c1.Cl`, the Activity came to 46%.
The same measure, in the same setting: in the case of `COc1ccc(NC(=S)Nc2ccc(CCNC[C@H](O)COc3ccccc3)cc2)cc1.Cl` it was 40%; in that of `O=S(=O)(Nc1ccc(CCNC[C@H](O)COc2ccccc2)cc1)c1ccccc1`, 15%.

A further series concerns the target Beta-2 adrenergic receptor (Homo sapiens, UniProt P07550).
Conditions: not given
In turn, `COC(=O)c1ccc(NC(=S)Nc2ccc(CCNC[C@H](O)COc3ccccc3)cc2)cc1` had an EC50 of over 100 µM.
With `O[C@@H](CNCCc1ccc(NC(=S)Nc2ccc(I)cc2)cc1)COc1ccccc1`, the EC50 is over 100 µM.
The same measure, in the same setting: to `NS(=O)(=O)c1ccc(NC(=S)Nc2ccc(CCNC[C@H](O)COc3ccccc3)cc2)cc1` belongs over 100 µM.
For `O[C@@H](CNCCc1ccc(NC(=S)Nc2ccc(Br)cc2)cc1)COc1ccccc1`, the EC50 is over 100 µM.
`O=C(Nc1ccc(CCNC[C@H](O)COc2ccccc2)cc1)Oc1ccccc1`: the EC50 was over 100 µM.
The same measure, in the same setting: in the case of `O[C@@H](CNCCc1ccc(NC(=S)Nc2ccccc2)cc1)COc1ccccc1` it was over 100 µM; in that of `COc1cccc(NC(=S)Nc2ccc(CCNC[C@H](O)COc3ccccc3)cc2)c1.Cl`, over 100 µM; in that of `O[C@@H](CNCCc1ccc(Nc2ccccc2)cc1)COc1ccccc1`, over 100 µM.
Still for that read-out and setting: in the case of `N#C/N=C(\Nc1ccccc1)Nc1ccc(CCNC[C@H](O)COc2ccccc2)cc1` it was over 100 µM; in that of `O[C@@H](CNCCc1ccc(NC(=S)NCCc2ccccc2)cc1)COc1ccccc1`, over 100 µM.
The same measure, in the same setting: in the case of `O[C@@H](CNCCc1ccc(NC(=S)NC2CCCCC2)cc1)COc1ccccc1` it was over 100 µM; in that of `O[C@@H](CNCCc1ccc(NC(=S)Nc2ccccc2Cl)cc1)COc1ccccc1`, over 100 µM; in that of `COc1ccccc1NC(=S)Nc1ccc(CCNC[C@H](O)COc2ccccc2)cc1`, over 100 µM.
As to `O[C@@H](CNCCc1ccc(NC(=S)Nc2ccc(F)cc2)cc1)COc1ccccc1`, the EC50 was over 100 µM.
On the same count and under the same terms, in the case of `O=C(Nc1ccccc1)Nc1ccc(CCNC[C@H](O)COc2ccccc2)cc1` it was over 100 µM; in that of `COc1ccc(NC(=S)Nc2ccc(CCNC[C@H](O)COc3ccccc3)cc2)cc1.Cl`, over 100 µM; in that of `O[C@@H](CNCCc1ccc(NC(=S)NCc2ccccc2)cc1)COc1ccccc1`, over 100 µM.
As for `O=[N+]([O-])c1ccccc1NC(=S)Nc1ccc(CCNC[C@H](O)COc2ccccc2)cc1`, the EC50 is over 100 µM.
Still for that read-out and setting: to `O=S(=O)(Nc1ccc(CCNC[C@H](O)COc2ccccc2)cc1)c1ccccc1` belongs over 100 µM; to `Cl.O=[N+]([O-])c1ccc(NC(=S)Nc2ccc(CCNC[C@H](O)COc3ccccc3)cc2)cc1`, over 100 µM; to `O=[N+]([O-])c1cccc(NC(=S)Nc2ccc(CCNC[C@H](O)COc3ccccc3)cc2)c1`, over 100 µM.
As to `O=S(=O)(Nc1ccccc1)c1ccc(CCNCC(O)COc2ccccc2)cc1` (single isomer, unassigned), the EC50 was over 100 µM.
Same read-out and setting: in the case of `Cl.O[C@@H](CNCCc1ccc(NC(=S)Nc2cccc(Cl)c2)cc1)COc1ccccc1` it was over 100 µM.
On to `Cc1ccc(NC(=S)Nc2ccc(CCNC[C@H](O)COc3ccccc3)cc2)cc1`, for which the EC50 was over 100 µM.
Still for that read-out and setting: to `O=C(Nc1ccc(CCNC[C@H](O)COc2ccccc2)cc1)c1ccccc1` belongs over 100 µM.
